Results published in patent US8916557B2, “Substituted 4-Aryl-N-phenyl-1,3,5-triazin-2-amines” (Bayer Intellectual Property GmbH, priority 2011, dated 2014).

Columns and labels:
[1] = system: HeLa-MaTu-ADR, multidrug-resistant human cervical carcinoma cells; experiment: Proliferation assay (crystal violet), HeLa-MaTu-ADR; assay type: cell-based; details: read-out: Inhibition of HeLa/MaTu/ADR cell proliferation
Description: Cultivated tumour cells (NCI-H460, human non-small cell lung carcinoma cells, ATCC HTB-177; DU 145, hormone-independent human prostate carcinoma cells, ATCC HTB-81; HeLa-MaTu, human cervical carcinoma cells, EPO-GmbH, Berlin; HeLa-MaTu-ADR, multidrug-resistant human cervical carcinoma cells, EPO-GmbH, Berlin; HeLa human cervical tumour cells, ATCC CCL-2; Caco-2 human colorectal carcinoma, ATCC HTB-37; B16F10 mouse melanoma cells, ATCC CRL-6475) were plated at a density of 5000 cells/well (DU145, HeLa-MaTu-ADR), 3000 cells/well (NCI-H460, HeLa-MaTu, HeLa), 1500 cells/well (Caco-2), or 1000 cells/well (B16F10) in a 96-well multititer plate in 200 μL of their respective growth medium supplemented 10% fetal calf serum. After 24 hours, the cells of one plate (zero-point plate) were stained with crystal violet (see below), while the medium of the other plates was replaced by fresh culture medium (200 μl), to which the test substances were added in various concentrations (0 μM, as well as in the range of 0.001-10 μM; the final concentration of the solvent dimethyl sulfoxide was 0.5%). The cells were incubated for 4 days in the presence of test substances. Cell proliferation was determined by staining the cells with crystal violet: the cells were fixed by adding 20 μl/measuring point of an 11% glutaric aldehyde solution for 15 minutes at room temperature. After three washing cycles of the fixed cells with water, the plates were dried at room temperature. The cells were stained by adding 100 μl/measuring point of a 0.1% crystal violet solution (pH 3.0). After three washing cycles of the stained cells with water, the plates were dried at room temperature. The dye was dissolved by adding 100 μl/measuring point of a 10% acetic acid solution. The extinction was determined by photometry at a wavelength of 595 nm. The change of cell number, in percent, was calculated by normalization of the measured values to the extinction values of the zero-point plate (=0%) and the extinction of the untreated (0 μm) cells (=100%). The IC50 values were determined by means of a 4 parameter fit.

[2] = target: T1, CDK2/CycE (Homo sapiens, UniProt P24941); experiment: CDK2/CycE kinase assay (TR-FRET); assay type: biochemical; details: Method 2, 10 μM ATP
T1 construct: GST; purchased ProQinase GmbH (Freiburg, Germany); host or cells: insect cells (Sf9)
Summary of the method: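 GST-CDK2/GST-CycE (Sf9-expressed, ~130 ng/ml) pre-incubated with compound 15 min, then reacted 25 min at 22 °C with 10 μM ATP and 0.75 μM biotinylated peptide in Tris pH 8.0. Phospho-substrate detected by TR-FRET (anti-pRb pSer807/811, Eu/XL665), 665/620 nm ratio.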

Structure (SMILES): COc1cc(F)c(F)cc1-c1ncnc(Nc2cccc(CS(C)(=O)=O)c2)n1 [Example 1, 4-(4,5-Difluoro-2-methoxyphenyl)-N-{3-[(methylsulfonyl)methyl]phenyl}-1,3,5-triazin-2-amine]
- IC50 [1]: 0.4 µM
- IC50 [2]: 0.64 µM

Structure (SMILES): COc1cc(F)ccc1-c1ncnc(Nc2cccc(CS(C)(=O)=O)c2)n1 [Example 3, 4-(4-Fluoro-2-methoxyphenyl)-N-{3-[(methylsulfonyl)methyl]phenyl}-1,3,5-triazin-2-amine]
- IC50 [1]: 0.92 µM
- IC50 [2]: 1.6 µM

Structure (SMILES): CS(=O)(=O)Cc1cccc(Nc2ncnc(-c3ccc(F)cc3OCc3ccccc3)n2)c1 [Example 4, 4-[2-(Benzyloxy)-4-fluorophenyl]-N-{3-[(methylsulfonyl)methyl]phenyl}-1,3,5-triazin-2-amine]
- IC50 [1]: 0.1 µM
- IC50 [2]: 0.089 µM

Structure (SMILES): COc1cc(F)ccc1-c1ncnc(Nc2cccc(CS(=O)(=O)C3CCCCC3)c2)n1 [Example 9, N-{3-[(Cyclohexylsulfonyl)methyl]phenyl}-4-(4-fluoro-2-methoxyphenyl)-1,3,5-triazin-2-amine]
- IC50 [1]: 0.42 µM
- IC50 [2]: 0.56 µM

Structure (SMILES): COc1cc(F)ccc1-c1ncnc(Nc2cc(F)cc(CS(C)(=O)=O)c2)n1 [Example 10, 4-(4-Fluoro-2-methoxyphenyl)-N-{3-fluoro-5-[(methylsulfonyl)methyl]phenyl}-1,3,5-triazin-2-amine]
- IC50 [1]: 0.08 µM
- IC50 [2]: 0.32 µM

Structure (SMILES): CS(=O)(=O)Cc1cccc(Nc2ncnc(-c3cccc4c3OCCC4)n2)c1 [Example 12, 4-(3,4-Dihydro-2H-chromen-8-yl)-N-{3-[(methylsulfonyl)methyl]phenyl}-1,3,5-triazin-2-amine]
- IC50 [1]: 0.23 µM
- IC50 [2]: 0.51 µM

Structure (SMILES): CS(=O)(=O)Cc1cccc(Nc2ncnc(-c3cccc4c3OCCO4)n2)c1 [Example 18, 4-(2,3-Dihydro-1,4-benzodioxin-5-yl)-N-{3-[(methylsulfonyl)methyl]phenyl}-1,3,5-triazin-2-amine]
- IC50 [1]: 0.4 µM
- IC50 [2]: 0.84 µM

Structure (SMILES): CS(=O)(=O)Cc1cccc(Nc2ncnc(-c3ccccc3OCc3cccc(Cl)c3)n2)c1 [Example 28, 4-{2-[(3-Chlorobenzyl)oxy]phenyl}-N-{3-[(methylsulfonyl)methyl]phenyl}-1,3,5-triazin-2-amine]
- IC50 [1]: 0.35 µM
- IC50 [2]: 0.5 µM

Structure (SMILES): CS(=O)(=O)Cc1cccc(Nc2ncnc(-c3ccc(Cl)cc3OC3CCCC3)n2)c1 [Example 29, 4-[4-Chloro-2-(cyclopentyloxy)phenyl]-N-{3-[(methylsulfonyl)methyl]phenyl}-1,3,5-triazin-2-amine]
- IC50 [1]: 0.4 µM
- IC50 [2]: 12 µM

Structure (SMILES): CS(=O)(=O)Cc1cccc(Nc2ncnc(-c3cc(F)ccc3OCc3cccc(F)c3)n2)c1 [Example 31, 4-{5-Fluoro-2-[(3-fluorobenzyl)oxy]phenyl}-N-{3-[(methylsulfonyl)methyl]phenyl}-1,3,5-triazin-2-amine]
- IC50 [1]: 0.16 µM
- IC50 [2]: 0.33 µM

Structure (SMILES): COc1cc(F)ccc1-c1ncnc(Nc2ccc(F)c(CS(C)(=O)=O)c2)n1 [Example 33, 4-(4-Fluoro-2-methoxyphenyl)-N-{4-fluoro-3-[(methylsulfonyl)methyl]phenyl}-1,3,5-triazin-2-amine]
- IC50 [1]: 0.18 µM
- IC50 [2]: 0.36 µM

Structure (SMILES): COc1cc(F)ccc1-c1ncnc(Nc2cccc(CS(=O)(=O)C3CC3)c2)n1 [Example 40, N-{3-[(Cyclopropylsulfonyl)methyl]phenyl}-4-(4-fluoro-2-methoxyphenyl)-1,3,5-triazin-2-amine]
- IC50 [1]: 0.51 µM
- IC50 [2]: 1.3 µM

Structure (SMILES): CCOc1cc(F)ccc1-c1ncnc(Nc2cccc(CS(C)(=O)=O)c2)n1 [Example 42, 4-(2-Ethoxy-4-fluorophenyl)-N-{3-[(methylsulfonyl)-methyl]phenyl}-1,3,5-triazin-2-amine]
- IC50 [1]: 0.22 µM
- IC50 [2]: 0.59 µM

Structure (SMILES): CCCCOc1cc(F)ccc1-c1ncnc(Nc2cccc(CS(C)(=O)=O)c2)n1 [Example 44, 4-(2-Butoxy-4-fluorophenyl)-N-{3-[(methylsulfonyl)-methyl]phenyl}-1,3,5-triazin-2-amine]
- IC50 [1]: 0.32 µM
- IC50 [2]: 0.91 µM

Structure (SMILES): CS(=O)(=O)Cc1cccc(Nc2ncnc(-c3ccc(F)cc3OCC3CC3)n2)c1 [Example 55, 4-[2-(Cyclopropylmethoxy)-4-fluorophenyl]-N-{3-[(methylsulfonyl)methyl]phenyl}-1,3,5-triazin-2-amine]
- IC50 [1]: 0.32 µM
- IC50 [2]: 1.4 µM

Structure (SMILES): CS(=O)(=O)Cc1cccc(Nc2ncnc(-c3ccc(F)cc3OCCCC(F)(F)F)n2)c1 [Example 59, 4-[4-Fluoro-2-(4,4,4-trifluorobutoxy)phenyl]-N-{3-[(methylsulfonyl)methyl]phenyl}-1,3,5-triazin-2-amine]
- IC50 [1]: 0.22 µM
- IC50 [2]: 0.71 µM

Structure (SMILES): CS(=O)(=O)Cc1cccc(Nc2ncnc(-c3ccc(F)cc3OCCF)n2)c1 [Example 61, 4-[4-Fluoro-2-(2-fluoroethoxy)phenyl]-N-{3-[(methylsulfonyl)methyl]phenyl}-1,3,5-triazin-2-amine]
- IC50 [1]: 0.38 µM
- IC50 [2]: 0.64 µM

Structure (SMILES): CC#CCOc1cc(F)ccc1-c1ncnc(Nc2cccc(CS(C)(=O)=O)c2)n1 [Example 62, 4-[2-(But-2-yn-1-yloxy)-4-fluorophenyl]-N-{3-[(methylsulfonyl)methyl]phenyl}-1,3,5-triazin-2-amine]
- IC50 [1]: 0.18 µM
- IC50 [2]: 0.54 µM

Structure (SMILES): Cc1cccc(COc2cc(F)ccc2-c2ncnc(Nc3cccc(CS(C)(=O)=O)c3)n2)c1 [Example 83, 4-{4-Fluoro-2-[(3-methylbenzyl)oxy]phenyl}-N-{3-[(methylsulfonyl)-methyl]phenyl}-1,3,5-triazin-2-amine]
- IC50 [1]: 0.35 µM
- IC50 [2]: 0.4 µM

Structure (SMILES): CS(=O)(=O)Cc1cccc(Nc2ncnc(-c3ccc(F)cc3OCc3cccc(Cl)c3)n2)c1 [Example 85, 4-{2-[(3-Chlorobenzyl)oxy]-4-fluorophenyl}-N-{3-[(methylsulfonyl)methyl]phenyl}-1,3,5-triazin-2-amine]
- IC50 [1]: 0.35 µM
- IC50 [2]: 0.26 µM

Structure (SMILES): Cc1cc(COc2cc(F)ccc2-c2ncnc(Nc3cccc(CS(C)(=O)=O)c3)n2)ccn1 [Example 87, 4-{4-Fluoro-2-[(2-methylpyridin-4-yl)methoxy]-phenyl}-N-{3-[(methylsulfonyl)methyl]phenyl}-1,3,5-triazin-2-amine]
- IC50 [1]: 0.74 µM
- IC50 [2]: 0.37 µM

Structure (SMILES): CS(=O)(=O)Cc1cccc(Nc2ncnc(-c3ccc(F)cc3OCc3ccnc(Cl)c3)n2)c1 [Example 88, 4-{2-[(2-Chloropyridin-4-yl)methoxy]-4-fluorophenyl}-N-{3-[(methylsulfonyl)-methyl]phenyl}-1,3,5-triazin-2-amine]
- IC50 [1]: 0.27 µM
- IC50 [2]: 0.13 µM

Structure (SMILES): CS(=O)(=O)Cc1cccc(Nc2ncnc(-c3ccc(F)cc3OCc3ccncc3)n2)c1 [Example 89, 4-[4-Fluoro-2-(pyridin-4-ylmethoxy)phenyl]-N-{3-[(methylsulfonyl)methyl]phenyl}-1,3,5-triazin-2-amine]
- IC50 [1]: 0.34 µM
- IC50 [2]: 0.4 µM

Structure (SMILES): CS(=O)(=O)Cc1cccc(Nc2ncnc(-c3ccc(F)cc3OCc3ccc(C#N)cc3)n2)c1 [Example 90, 4-({5-Fluoro-2-[4-({3-[(methylsulfonyl)methyl]phenyl}amino)-1,3,5-triazin-2-yl]phenoxy}methyl)-benzonitrile]
- IC50 [1]: 0.33 µM
- IC50 [2]: 0.68 µM
